Reference: PMC12365235, “Molecular mechanisms of thiazide-like diuretics-mediated inhibition of the human Na-Cl cotransporter” (Nature Communications, 2025)

Biological target: T1, NCCcryo (Homo sapiens, UniProt P55017, E240A)
T1 sequence (P55017 132-1021 E240A): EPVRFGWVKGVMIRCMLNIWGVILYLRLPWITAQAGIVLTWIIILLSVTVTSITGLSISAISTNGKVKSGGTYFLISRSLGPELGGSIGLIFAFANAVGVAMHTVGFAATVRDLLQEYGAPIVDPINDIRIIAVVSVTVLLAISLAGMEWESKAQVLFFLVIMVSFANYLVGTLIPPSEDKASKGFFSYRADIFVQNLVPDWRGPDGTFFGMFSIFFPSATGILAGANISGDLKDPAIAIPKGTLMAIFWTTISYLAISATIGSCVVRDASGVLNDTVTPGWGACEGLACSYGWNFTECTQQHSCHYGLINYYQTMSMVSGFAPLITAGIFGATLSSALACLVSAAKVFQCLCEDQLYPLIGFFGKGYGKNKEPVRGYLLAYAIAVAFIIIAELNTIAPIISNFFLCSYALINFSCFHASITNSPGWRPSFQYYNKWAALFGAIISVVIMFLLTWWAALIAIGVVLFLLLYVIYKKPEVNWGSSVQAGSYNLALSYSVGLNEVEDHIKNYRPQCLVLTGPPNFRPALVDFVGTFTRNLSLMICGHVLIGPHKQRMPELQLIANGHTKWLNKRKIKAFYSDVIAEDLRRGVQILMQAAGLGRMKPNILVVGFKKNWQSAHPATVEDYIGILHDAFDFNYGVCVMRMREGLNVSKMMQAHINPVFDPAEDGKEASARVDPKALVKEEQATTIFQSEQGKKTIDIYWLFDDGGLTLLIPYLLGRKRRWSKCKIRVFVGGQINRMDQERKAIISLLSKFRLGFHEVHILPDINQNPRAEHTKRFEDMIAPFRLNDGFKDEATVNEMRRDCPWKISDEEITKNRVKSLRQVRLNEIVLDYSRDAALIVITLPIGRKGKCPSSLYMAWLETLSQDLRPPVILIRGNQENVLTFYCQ
T1 sequence (A0A0G2KTI4 1-202 E76K partner): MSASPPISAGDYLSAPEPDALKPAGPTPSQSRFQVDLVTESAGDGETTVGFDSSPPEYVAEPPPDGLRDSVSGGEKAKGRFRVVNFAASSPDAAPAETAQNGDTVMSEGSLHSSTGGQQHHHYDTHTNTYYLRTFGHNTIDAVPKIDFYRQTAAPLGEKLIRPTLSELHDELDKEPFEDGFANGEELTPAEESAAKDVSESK
Test: 125I- uptake assay, NCCcryo construct
Assay type: cell-based
Details: thiazide-sensitive iodide uptake; hNCC with DrNKCC1 NTD and E240A
Experimental: The NCCcryo construct consists of human NCC with its NTD (first 131 residues) replaced by that of zebrafish NKCC1 (first 202 residues), along with an E240A mutation and a Strep-tag II[69] at the N-terminus. The codon-optimized NCCcryo was cloned into a modified BacMam vector[70], which was then used for generating baculoviruses. HEK293S cells (3.0–3.5 × 10^6 cells per mL) were infected with the baculoviruses for NCCcryo, with sodium butyrate (10 mM) added 12–15 h afterwards, and the incubation temperature reduced to 30 °C. Two days after the addition of sodium butyrate, HEK293S cells were harvested.
HEK293S cell lines, cultured in 293 Freestyle medium (Life Technologies; plus 10% fetal bovine serum), stably expressing hNCC and its variants were generated following published protocols. Cells were transfected using Lipofectamine 3000 (Invitrogen) with a pSBbi-RP-based plasmid containing hNCC or its variants and the SB100X vector. Puromycin (2 μg/mL; Gemini Bio-Products) was used for selection of stable cell lines.
To prepare for the uptake experiment, cells were plated at 0.5 × 10^6 cells/well in 24-well plates one day in advance. […] Cells lysed using 1% sodium dodecyl sulfate (SDS) were analyzed by scintillation counting. […]

NS(=O)(=O)c1cc(C2(O)NC(=O)c3ccccc32)ccc1Cl (centres unmarked) [chlorthalidone]
IC50: 20 nM

CC1Cc2ccccc2N1NC(=O)c1ccc(Cl)c(S(N)(=O)=O)c1 (centres unmarked) [indapamide]
IC50: 9.1 nM
